Values joined by “and” are separate entries in the source; they are usually repeats but may differ in a detail not shown here. Equal values may be shown once.
Assay: xn = mol fraction of the nth substance listed
Conditions: Gas, Buoyancy - hydrostatic balance with magnetic suspension - one sinker

N#N [nitrogen] + C
Conditions	mass density
240 K, 2107.5 kPa, x2 = 0.8998	19.5904 kg/m3 and 19.5908 kg/m3
240 K, 4055.5 kPa, x2 = 0.8998	40.6283 kg/m3
240 K, 8017.2 kPa, x2 = 0.8	96.5565 kg/m3
240 K, 8864.8 kPa, x2 = 0.8	109.578 kg/m3
240 K, 12048 kPa, x2 = 0.8	159.33 kg/m3
240 K, 13511 kPa, x2 = 0.8998	181.648 kg/m3
240.01 K, 1951.7 kPa, x2 = 0.8	19.1493 kg/m3 and 19.149 kg/m3
240.01 K, 3991.5 kPa, x2 = 0.8	41.8987 kg/m3
240.01 K, 3991.7 kPa, x2 = 0.8	41.901 kg/m3
240.01 K, 6011.9 kPa, x2 = 0.8	67.6707 kg/m3
240.01 K, 6012.2 kPa, x2 = 0.8	67.6768 kg/m3
240.01 K, 7076 kPa, x2 = 0.8	82.6152 kg/m3
240.01 K, 8017.6 kPa, x2 = 0.8	96.5609 kg/m3
240.01 K, 8026.3 kPa, x2 = 0.8998	94.9591 kg/m3
240.01 K, 10028 kPa, x2 = 0.8998	127.626 kg/m3
240.01 K, 10029 kPa, x2 = 0.8998	127.633 kg/m3
240.01 K, 10372 kPa, x2 = 0.8	133.317 kg/m3 and 133.315 kg/m3
240.01 K, 12048 kPa, x2 = 0.8	159.332 kg/m3
240.01 K, 12090 kPa, x2 = 0.8998	160.982 kg/m3
240.01 K, 13638 kPa, x2 = 0.8	182.319 kg/m3
240.01 K, 15026 kPa, x2 = 0.8998	200.798 kg/m3
240.02 K, 6035.6 kPa, x2 = 0.8998	65.6527 kg/m3
249.91 K, 2443.9 kPa, x2 = 0.8	23.1504 kg/m3
249.91 K, 2444.1 kPa, x2 = 0.8	23.1522 kg/m3
249.91 K, 2444.9 kPa, x2 = 0.8	23.1598 kg/m3
249.91 K, 5015.8 kPa, x2 = 0.8	51.0598 kg/m3
249.91 K, 5016 kPa, x2 = 0.8	51.0618 kg/m3
249.91 K, 7570.5 kPa, x2 = 0.8	82.6548 kg/m3
249.92 K, 7570.8 kPa, x2 = 0.8	82.6605 kg/m3
249.92 K, 8909.9 kPa, x2 = 0.8	100.551 kg/m3
249.92 K, 8910.5 kPa, x2 = 0.8	100.56 kg/m3
249.92 K, 8911 kPa, x2 = 0.8	100.565 kg/m3
249.93 K, 10917 kPa, x2 = 0.8	128.204 kg/m3
249.93 K, 12900 kPa, x2 = 0.8	155.107 kg/m3
249.93 K, 12901 kPa, x2 = 0.8	155.123 kg/m3
249.93 K, 14257 kPa, x2 = 0.8	172.455 kg/m3
249.93 K, 14258 kPa, x2 = 0.8	172.479 kg/m3
249.93 K, 16938 kPa, x2 = 0.8	202.973 kg/m3
249.93 K, 16952 kPa, x2 = 0.8	203.124 kg/m3
249.94 K, 9596 kPa, x2 = 0.8	109.925 kg/m3
249.94 K, 10910 kPa, x2 = 0.8	128.101 kg/m3
249.99 K, 2003.4 kPa, x2 = 0.8998	17.6409 kg/m3
249.99 K, 2056.7 kPa, x2 = 0.8	19.2703 kg/m3
249.99 K, 3994.1 kPa, x2 = 0.8998	37.4833 kg/m3
249.99 K, 3994.2 kPa, x2 = 0.8998	37.4837 kg/m3
249.99 K, 4008 kPa, x2 = 0.8	39.6397 kg/m3
249.99 K, 6005.8 kPa, x2 = 0.8998	60.2899 kg/m3
249.99 K, 6017.6 kPa, x2 = 0.8	62.9683 kg/m3
249.99 K, 7544.1 kPa, x2 = 0.8	82.2685 kg/m3
249.99 K, 7544.6 kPa, x2 = 0.8	82.2725 kg/m3
249.99 K, 8074.6 kPa, x2 = 0.8998	86.7809 kg/m3
249.99 K, 8074.9 kPa, x2 = 0.8998	86.7846 kg/m3
249.99 K, 8075.1 kPa, x2 = 0.8998	86.7862 kg/m3
249.99 K, 10120 kPa, x2 = 0.8998	115.3 kg/m3
249.99 K, 10121 kPa, x2 = 0.8	117.092 kg/m3
249.99 K, 12763 kPa, x2 = 0.8998	152.294 kg/m3
249.99 K, 13368 kPa, x2 = 0.8	161.09 kg/m3
249.99 K, 13369 kPa, x2 = 0.8	161.093 kg/m3
250 K, 1972.2 kPa, x2 = 0.8998	17.3493 kg/m3
250 K, 2229 kPa, x2 = 0.8998	19.7632 kg/m3
250 K, 12762 kPa, x2 = 0.8998	152.28 kg/m3 and 152.282 kg/m3
250 K, 15168 kPa, x2 = 0.8998	182.264 kg/m3
250 K, 18609 kPa, x2 = 0.8998	216.303 kg/m3
274.8 K, 11276 kPa, x2 = 0.8	109.07 kg/m3
274.81 K, 2552.2 kPa, x2 = 0.8	21.5902 kg/m3
274.81 K, 2552.3 kPa, x2 = 0.8	21.5893 kg/m3
274.81 K, 5055.3 kPa, x2 = 0.8	44.7483 kg/m3
274.81 K, 5055.4 kPa, x2 = 0.8	44.7496 kg/m3
274.81 K, 7550.3 kPa, x2 = 0.8	69.666 kg/m3 and 69.6651 kg/m3
274.81 K, 7562.1 kPa, x2 = 0.8	69.788 kg/m3
274.81 K, 7562.6 kPa, x2 = 0.8	69.7929 kg/m3
274.81 K, 9501.7 kPa, x2 = 0.8	90.1191 kg/m3
274.81 K, 9502.3 kPa, x2 = 0.8	90.1254 kg/m3
274.81 K, 10330 kPa, x2 = 0.8	98.956 kg/m3
274.81 K, 10337 kPa, x2 = 0.8	99.0305 kg/m3
274.81 K, 11275 kPa, x2 = 0.8	109.063 kg/m3
274.81 K, 12889 kPa, x2 = 0.8	126.201 kg/m3
274.81 K, 12890 kPa, x2 = 0.8	126.206 kg/m3
274.81 K, 14325 kPa, x2 = 0.8	141.105 kg/m3
274.81 K, 14327 kPa, x2 = 0.8	141.128 kg/m3
274.81 K, 15731 kPa, x2 = 0.8	155.191 kg/m3
274.81 K, 15733 kPa, x2 = 0.8	155.216 kg/m3
274.81 K, 16797 kPa, x2 = 0.8	165.435 kg/m3
274.81 K, 16816 kPa, x2 = 0.8	165.609 kg/m3
274.82 K, 8425.3 kPa, x2 = 0.8	78.7622 kg/m3
274.82 K, 9439.5 kPa, x2 = 0.8	89.4646 kg/m3
274.82 K, 11275 kPa, x2 = 0.8	109.065 kg/m3
274.82 K, 11277 kPa, x2 = 0.8	109.088 kg/m3
274.82 K, 12811 kPa, x2 = 0.8	125.374 kg/m3
274.99 K, 2012.7 kPa, x2 = 0.8	16.8448 kg/m3
274.99 K, 2211 kPa, x2 = 0.8998	17.4645 kg/m3
274.99 K, 4076.7 kPa, x2 = 0.8	35.4308 kg/m3
274.99 K, 6021.2 kPa, x2 = 0.8	54.1463 kg/m3
274.99 K, 6055.4 kPa, x2 = 0.8998	51.8525 kg/m3
274.99 K, 8019.2 kPa, x2 = 0.8	74.4425 kg/m3
274.99 K, 10017 kPa, x2 = 0.8	95.4954 kg/m3
274.99 K, 11989 kPa, x2 = 0.8	116.514 kg/m3 and 116.518 kg/m3
274.99 K, 14080 kPa, x2 = 0.8	138.416 kg/m3
274.99 K, 15091 kPa, x2 = 0.8998	145.151 kg/m3
274.99 K, 15497 kPa, x2 = 0.8	152.681 kg/m3
274.99 K, 16131 kPa, x2 = 0.8	158.862 kg/m3 and 158.861 kg/m3
274.99 K, 16805 kPa, x2 = 0.8998	161.533 kg/m3 and 161.536 kg/m3
274.99 K, 17724 kPa, x2 = 0.8998	169.816 kg/m3
274.99 K, 17726 kPa, x2 = 0.8998	169.823 kg/m3
275 K, 2005.1 kPa, x2 = 0.8998	15.7688 kg/m3
275 K, 4053.8 kPa, x2 = 0.8998	33.2951 kg/m3
275 K, 6055.4 kPa, x2 = 0.8998	51.8523 kg/m3
275 K, 8023.2 kPa, x2 = 0.8998	71.384 kg/m3
275 K, 10028 kPa, x2 = 0.8998	92.2879 kg/m3
275 K, 11444 kPa, x2 = 0.8998	107.355 kg/m3
275 K, 13322 kPa, x2 = 0.8998	127.156 kg/m3
299.91 K, 2564.5 kPa, x2 = 0.8	19.5987 kg/m3 and 19.5993 kg/m3
299.91 K, 4995 kPa, x2 = 0.8	39.306 kg/m3

Source: the NIST ThermoML archive (doi:10.1016/j.jct.2005.10.004)
